Read-outs that look alike come from different tables or passages of the source.
Experiments:
E. coli [1] = experiment: Biofilm formation assay (crystal violet); format: cell-based, Escherichia coli; settings: 8 h at 37 °C, absorbance at 550 nm, n = 4
Description: E. coli cells were thawed, cultured overnight, and then subcultured. […] To prevent subsequent background staining, the culture medium was removed and washed three times with distilled water. Then, 125 μL of crystal violet solution (0.1%, w/v) was added to the cells, which were incubated for another 10 min. Thereafter, the solution was removed, and the cells were washed with water and dried overnight. Lastly, 125 µL of a 30% acetic acid solution was added to the cells, which were incubated for 10 min to dissolve the film. The absorbance of the cells was then measured using a microplate reader (VERSAmax, Molecular Devices, Sunnyvale, CA, USA) at a wavelength of 550 nm.

[2] = test system: Staphylococcus aureus (S. aureus); experiment: Bacterial growth assay (turbidity, OD600); format: cell-based; settings: 100 µg/mL, 1-8 h
Description: (§1) The antibacterial effect of FKFL-G2 was evaluated using Escherichia coli (E. coli) DH5α, which is kanamycin-resistant, and Staphylococcus aureus (S. aureus). Bacterial growth was estimated based on turbidity measurements, a commonly used method of evaluating the density of bacteria grown on a solution medium. In this process, E. coli and S. aureus bacteria were thawed, cultured overnight, and subcultured. […] The optical density (OD) of each sample was measured at a wavelength of 600 nm using an ultraviolet–visible spectrophotometer (OPTIZEN QX, Optizen, Daejeon, Republic of Korea).

S. aureus [3] = experiment: Membrane permeabilization assay (NPN); format: cell-based, Staphylococcus aureus; settings: 100 µL of 1 mg/mL in 1 mL, 30 min, HEPES pH 7.8, ex 350 / em 429 nm, n = 3
Description: (§2) To evaluate the ability of FKFL-G2 to disrupt bacterial cell membranes, the membrane permeabilization assay was performed using N-phenyl-1-naphthylamine (NPN). E. coli and S. aureus bacteria were thawed and cultured overnight at 37 °C while being shaken at 180 rpm. After the absorbance of the bacterial solutions reached an OD600 of 1.0, the bacterial cells were harvested via centrifugation at 3500 rpm for 10 min. The bacterial pellet was washed twice with 4-(2-hydroxyethyl)-1-piperazineethanesulfonic acid (HEPES) buffer (pH 7.8). The bacterial pellets were then subjected to another round of centrifugation at 3500 rpm for 10 min and resuspended in 1 mL of HEPES (pH 7.8) to make bacterial solutions. […] Triton X-100, a well-known surfactant with a high capacity to destroy cell membranes, was used as a control. The fluorescence of each solution was measured using a fluorometer (LS45 Fluorescence Spectrometer, PerkinElmer, Waltham, MA, USA) at an excitation wavelength of 350 nm and emission wavelength of 429 nm.

[4] = test system: Escherichia coli (E. coli) DH5α, kanamycin-resistant; experiment: Bacterial growth assay (turbidity, OD600); format: cell-based; settings: 100 µg/mL, 1-8 h
Description: as §1

E. coli [5] = experiment: Membrane permeabilization assay (NPN); format: cell-based, Escherichia coli; settings: 100 µL of 1 mg/mL in 1 mL, 30 min, HEPES pH 7.8, ex 350 / em 429 nm, n = 3
Description: as §2

E. coli [6] = experiment: Scanning electron microscopy of treated bacteria; format: cell-based, Escherichia coli; settings: 8 h at 37 °C
Description: (§3) Bacterial morphology with untreated or Amp, Kan, G2, and FKFL-G2-treated was observed using field emission scanning electron microscopy (FE-SEM; S-4800, Hitachi, Tokyo, Japan). E. coli and S. aureus bacteria were cultured and incubated with experimental and control samples for 8 h at 37 °C while being shaken at 225 rpm. Thereafter, 50 µL of the bacterial solution of each culture was placed on a silicon wafer and dried at room temperature. The bacteria-containing wafers were placed on a 24-well plate and treated with 4% paraformaldehyde for 30 min. The surfaces were then washed using various concentrations of ethanol solution 0%, 25%, 50%, 75%, and 99.9%. The washed wafers were coated with platinum for 90 s; after which, and the appearance of bacteria was observed using FE-SEM (S-4800, Hitachi, Tokyo, Japan). The shapes of treated bacterial cells were compared with those of nontreated corresponding bacterial cells.

NIH3T3 cells = test system: NIH3T3 cells
Description: NIH3T3 cells were used to evaluate the cytotoxicity of the FKFL-G2 dendrimer. A total of 1.8 × 10^4 cells/well were seeded in a 96-well plate and incubated in 90 µL of Dulbecco’s modified Eagle’s medium, containing 10% (v/v) fetal bovine serum and 1% (w/v) penicillin/streptomycin, for 16 h at 37 °C in a humidified atmosphere containing 5% CO2. […] Each sample in the experimental group was treated with 10 µL of the FKFL-G2 dendrimer at the following concentrations: 12.5, 25, 50, 100, and 200 µg/mL. After 24 h of incubation, 10 µL of EZ-Cytox reagent (WST-8) was added to each well (except for that used as the negative control), which were incubated for a subsequent 2 h. Lastly, the absorbance of the wells measured a data wavelength of 450 nm via a colorimetric enzyme-linked immunosorbent assay (VERSAmax, Molecular Devices, Sunnyvale, CA, USA).

[7] = Critical aggregation concentration (CAC), Nile red fluorescence; format: physicochemical; settings: ex 550 nm, intensity at 650 nm, FKFL-G2 0.001 to 0.9 mg/mL
Description: In order to confirm whether FKFL-G2 forms an aggregate by itself, the CAC was measured by fluorescence spectroscopy using Nile red. A 1 mL solution of FKFL-G2 with a concentration range of 0.001 to 0.9 mg/mL was combined with 5 µL of Nile red (1 mM in MeOH) and mixed by vortexing. Subsequently, fluorescence was measured at wavelengths of 550 nm for excitation and 560–760 nm for emission using a fluorometer (LS45, Fluorescence Spectrometer, PerkinElmer), and the fluorescence intensity at 650 nm was analyzed to measure the values of the nanoparticles.

E. coli [8] = experiment: Colony-forming unit assay; format: cell-based, Escherichia coli; settings: 100 µg/mL, 24 h growth on agar plate, n = 3
Description: (§4) A colony-forming unit assay was performed to determine the effect of FKFL-G2 on bacterial colony formation. This process followed the same steps as the turbidity test in Section 2.5. The OD of the cells was measured after 24 h of growth. The cell solution was diluted by a factor of 10^7; after which, 100 µL of the diluted solution was sprayed onto an agar plate and incubated in a shaking incubator for 24 h at 37 °C. The number of colonies produced was then observed.

[9] = Zeta potential and mean diameter (Zetasizer Nano ZS, DLS); format: physicochemical; settings: for Diameter / Polydispersity (PDI): DLS at RT, repeated three times; for Zeta Potential: room temperature, triplicate
Description: The surface charge and the mean diameter of the FKFL-G2 were measured in triplicate and evaluated at various concentrations at room temperature using a Zetasizer Nano ZS (Malvern Panalytical, Malvern, UK).

S. aureus [10] = experiment: Colony-forming unit assay; format: cell-based, Staphylococcus aureus; settings: 100 µg/mL, 24 h growth on agar plate, n = 3
Description: as §4

S. aureus [11] = experiment: Scanning electron microscopy of treated bacteria; format: cell-based, Staphylococcus aureus; settings: 8 h at 37 °C
Description: as §3

CC1(C)S[C@@H]2[C@H](NC(=O)[C@H](N)c3ccccc3)C(=O)N2[C@H]1C(=O)O [Ampicillin]
biofilm formation inhibition rate (E. coli [1]): approximately 98% | bacterial growth, OD600 over time (in words) [2]: remained stable

NC[C@H]1O[C@H](O[C@H]2[C@H](O)[C@@H](O[C@H]3O[C@H](CO)[C@@H](O)[C@H](N)[C@H]3O)[C@H](N)C[C@@H]2N)[C@H](O)[C@@H](O)[C@@H]1O [kanamycin, Kanamycin]
membrane permeabilization, NPN fluorescence (in words) (S. aureus [3]): did not show any membrane perturbation effect | biofilm formation inhibition rate (E. coli [1]): 75% | bacterial growth, OD600 over time (in words) [2]: remained stable | bacterial growth, OD600 over time (in words) [4]: grew well | membrane permeabilization, NPN fluorescence (in words) (E. coli [5]): did not show any membrane perturbation effect

phenylalanine (F)-lysine (K)-phenylalanine (F)-Leucine (L)-polyamidoamine generation 2 (PAMAM G2) [FKFL-G2]
membrane permeabilization, NPN fluorescence (in words) (S. aureus [3]): higher fluorescence than PAMAM G2 | cell density in FE-SEM images (in words) (E. coli [6]): lowest | cell viability (NIH3T3 cells; 8.46 µM): about 83% | cell viability (NIH3T3 cells; 16.9 µM): ~48% | biofilm formation inhibition rate (E. coli [1]): approximately 98% | Critical aggregation concentration (CAC) [7]: 31.03 µM | colony formation (in words) (E. coli [8]): strong antibacterial effect | Diameter ([9]; concentration 42.3 µM): 158.33 ± 12.59 | Polydispersity (PDI) ([9]; concentration 42.3 µM): 0.628 ± 0.14 | Zeta Potential ([9]; concentration 42.3 µM): 29.63 ± 6.51 | Diameter ([9]; concentration 84.6 µM): 109.83 ± 17.54 | Polydispersity (PDI) ([9]; concentration 84.6 µM): 0.459 ± 0.18 | Zeta Potential ([9]; concentration 84.6 µM): 35.5 ± 6.0 | Diameter ([9]; concentration 169.2 µM): 98.45 ± 6.95 | Polydispersity (PDI) ([9]; concentration 169.2 µM): 0.475 ± 0.03 | Zeta Potential ([9]; concentration 169.2 µM): 38.23 ± 5.74 | colony formation (in words) (S. aureus [10]): strong antibacterial effect | bacterial growth, OD600 over time (in words) [2]: decreased over time | cell density in FE-SEM images (in words) (S. aureus [11]): lowest | membrane permeabilization, NPN fluorescence (in words) (E. coli [5]): higher fluorescence than PAMAM G2

From article PMC10053621 (Pharmaceutics, 2023)
